The text below walks through data of patent publication US20150266864A1, “HETEROAROMATIC COMPOUNDS, METHOD FOR PREPARING THE COMPOUNDS, PHARMACEUTICAL COMPOSITIONS, USES AND METHOD FOR TREATING ACUTE AND CHRONIC PAIN” (CRISTÁLIA PRODUTOS QUÍMICOS FARMACÊUTICOS LTDA, priority 2012, published 2015).

In data set [1] the test system is rats subjected to sciatic nerve CCI. The experiment in a line: Chronic constrictive injury (CCI) of the sciatic nerve, thermal hyperalgesia, paw withdrawal test. Format: in vivo, rat. Conditions: for antinociceptive effect, paw withdrawal latency vs post-surgery control: first day of treatment; for antinociceptive effect, paw withdrawal latency vs post-surgery control / increase in latency of paw withdrawal: 32.25 μmol/kg ip; for increase in latency of paw withdrawal: since the 3rd day of treatment, p<0.05 or p<0.005. As for the experimental part:
The chronic constrictive injury (CCI) was induced by sciatic nerve ligation according to the method described by Bennett and Xie [Bennett. G. J.; Xie, Y. K. Pain […], 33: 87-107]. Male Wistar rats, weighing 180-240 g, were anesthetized with a mixture of ketamine and xylazine (60 mg/kg and 5 mg/kg, respectively), intraperitoneally. Through an incision of 0.5 cm (parallel and spaced about 10 mm from the left femur) the sciatic nerve was identified. With a thin glass rod, a small segment of sciatic nerve was exposed and four loosely ligatures were placed around the sciatic nerve spaced 1 mm each other using a 3-0 silk suture thread. After the procedure, the skin was sutured and a topical antiseptic was applied.
To assess animal behavior in response to hyperalgesic phenomenon resulting from sciatic nerve chronic constrictive injury, the model described by Hargreaves and Dubner was used [Hargreaves K., Dubner R., Brown F., Flores C., Joris J. Pain 1988, 32 (1): 77-88]. In this regard, paw withdrawal in response to a painful phenomenon was performed. This is a nociceptive test which involves a peripheral short thermal stimulus induced by the radiant heat of an incandescent lamp bulb. […] Radiant heat has an advantage over the other modes of thermal stimulation in that it produces no tactile stimulus. [Le Bars D., Gozariu M., Cadden S. W. Pharmacology Reviews, 2001, 53 (4), 597-652]. In this assay, a plantar test analgesimeter (ITC Life Science Inc, USA) was used.
Animals were placed in transparent acrylic boxes with tempered glass pane floor for 40 minutes to acclimate. After this period, the radiant heat was applied to the footpads of animals's hindpaws until they make the movement of paw withdrawal. The paw withdrawal latency was defined as the time recorded from the beginning of the radiant heat stimulus and the paw withdrawal. For each paw, three latency records were made, and the average value was used to define the paw withdrawal time control The maximum time that each animal was exposed to the radiant heat source (cut-off) was defined as three times the paw withdrawal time control, to avoid tissue injuries in animals's paws.
The day before surgery, rats, defined as “control before surgery”, were placed in acrylic boxes to the paw withdrawal test. On the 7th day after the surgery (CCI), the paw withdrawal test was again performed in order to verify neuropathic pain has been effectively developed in the left paw—defined as “post-surgery control.”
The paw withdrawal test was assessed during the days 1, 3, and 7 of the treatment (with amitriptyline hydrochloride or the compounds of examples of the instant invention) and on days 1, 3, and 7 after treatment interruption.
Differences were considered significant when p<0.05.

For data set [2], the system named is Swiss-type male mice. Put plainly: RotaRod performance test, motor coordination. Conditions: for animal residence time on the rotational cylinder compared to controls: 15 minutes after administration; for Mice residence time on the rotational cylinder: 9 rpm, cut off 180 s, mean ± SEM. (In general: Falling from the rotarod earlier than controls is read as motor impairment.)

Data set [3] deals with rats subjected to SNL. Put plainly: Spinal nerve ligation (SNL) L5 model, mechanical allodynia (digital Von Frey). Format: in vivo, rat.
The subject of data set [4] is rats subjected to SNL. Put plainly: Spinal nerve ligation (SNL) L5 model, thermal hyperalgesia. Format: in vivo, rat. The note with it: for effect on thermal hyperalgesia after treatment interruption: after 7 days of 32.25 μmol/kg ip.
[5] abbreviates: T 15 min after ip administration, 32.25 μmol/kg.
Setting [6] is: T 30 min after ip administration, 32.25 μmol/kg (diazepam 2 mg/kg).
Where [7] appears, read: T 60 min after ip administration, 32.25 μmol/kg (diazepam 2 mg/kg).
Where [8] appears, read: T 120 min after ip administration, 32.25 μmol/kg (diazepam 2 mg/kg).
Where [9] appears, read: ip during 7 days, 32.25 μmol/kg.

On to `Cl.Cl.Fc1ccc(-c2n[nH]cc2CCN2CCCCC2)cc1.O` [C3, 1-{2-[3-(4-fluorophenyl)-1H-pyrazol-4-yl]ethyl}piperidine dihydrochloride monohydrate], for which the “onset of significant increase in latency” value in data set [1] (5 mg/kg ip) and in data set [1] (10 mg/kg ip) was “significant increase in latency starting on day 3 of treatment” throughout. Moreover, the “reversal of signs of thermal hyperalgesia” value in data set [1] (5 mg/kg ip during 7 days) and in data set [1] (10 mg/kg ip during 7 days) was “effective in reversing the signs of thermal hyperalgesia” throughout. For the same molecule, the “antinociceptive effect, paw withdrawal latency vs post-surgery control” value in data set [1] is “antinociceptive effects in the first day of treatment”. Also, the “increase in latency of paw withdrawal” value in data set [1] is “statistically significant increase in latency of paw withdrawal”. For the same molecule, the “animal residence time on the rotational cylinder compared to controls” value in data set [2] (32.25 μmol/kg) is “equal to the time observed for the negative control, and significantly higher than the time observed for the control amitriptyline hydrochloride”. The “Mice residence time on the rotational cylinder” value in data set [2] (setting [5]) was found to be 180.0 s; in data set [2] (setting [6]), 178.2 s; in data set [2] (setting [7]), 178.7 s; in data set [2] (setting [8]), 180.0 s. In data set [3] (after 3 days of treatment, 32.25 μmol/kg ip, p<0.05), the “paw withdrawal threshold, mechanical allodynia” value is reported as “significant (p<0.05) paw withdrawal threshold”. The “analgesic effect on mechanical allodynia after treatment interruption” value in data set [3] (after 7 days of 32.25 μmol/kg ip) is “analgesic effect is maintained until the first day after treatment interruption”. In addition, the “effect on thermal hyperalgesia after treatment interruption” value in data set [4] is listed as “still observed up to 1 day after treatment interruption”. For the same molecule, the “increase in paw withdrawal latency” value in data set [4] (since the first day of treatment, 32.25 μmol/kg ip) is on record as “statistically significant increase in paw withdrawal latency”.

With `Cl.OC1(c2ccc(Cl)cc2)CCN(CCc2conc2-c2ccc(F)cc2)CC1` [C15, 4-(4-chlorophenyl)-1-{2-[3-(4-fluorophenyl)-1,2-oxazol-4-yl]ethyl}piperidin-4-ol hydrochloride], the “antinociceptive effect, paw withdrawal latency vs post-surgery control” value in data set [1] was “antinociceptive effects in the first day of treatment”. Moreover, the “increase in latency of paw withdrawal” value in data set [1] is listed as “statistically significant increase in latency of paw withdrawal”. In addition, the “animal residence time on the rotational cylinder compared to controls” value in data set [2] (32.25 μmol/kg) is “equal to the time observed for the negative control, and significantly higher than the time observed for the control amitriptyline hydrochloride”. For the same molecule, the “Mice residence time on the rotational cylinder” value in data set [2] (setting [5]) is reported as 180.0 s; in data set [2] (setting [6]), 179.0 s; in data set [2] (setting [7]), 179.2 s; in data set [2] (setting [8]) it was 180.0 s. Further, the “reversal of allodynia signs associated with neuropathic pain” value in data set [3] (setting [9]) is “effective in reverse the hyperalgesia and allodynia signs”. In addition, the “effect on thermal hyperalgesia after treatment interruption” value in data set [4] is given as “maintained for 1 day after treatment interruption”. The “paw withdrawal latency, thermal hyperalgesia” value in data set [4] (after 7 days of treatment, 32.25 μmol/kg ip) is on record as “statistically significant antinociceptive effect”. Also, in data set [4] (setting [9]), the “reversal of hyperalgesia signs associated with neuropathic pain” value is “effective in reverse the hyperalgesia and allodynia signs”.
